Results reported in ChEMBL document CHEMBL3507680, “University of Dundee, Gates Library screen for HepG2 cell viability”.

Experiment: Human HepG2 cell viability assay in 384 well format
Type: toxicity, cell-based
Design: dose 125 nL, time 70.5 hour; concentration not given beside the values
Conditions: HepG2 cells, read-out: Inhibition

Row | Structure (SMILES) | cytotoxicity at 70.5 h [%]
1 | O=C(Nc1ccc(Cl)cc1C(=O)NCCN1CCOCC1)c1ccco1 | -0.882
2 | O=C(NCC1CC1)C1=NOC2(CCN(Cc3ccc(Cl)c(F)c3)C2)C1 (stereo not given) | -7.64
3 | CCC(=O)N1CCC2(CC1)CC(Oc1ccccc1)CO2 (stereo not given) | -4.49
4 | Cc1ncnc2c1CCN(C(=O)c1ccoc1)CC2 | -6.33
5 | COCCNC(=O)c1nc2c(s1)CCCN2c1ccc(C)nn1 | 0.81
6 | O=C(c1cccs1)N1CCC2(CC1)CC(Oc1ccccc1)CO2 (stereo not given) | -10.8
7 | Cc1nnc(N2C[C@H](OCCCn3cccn3)[C@H]3OCCC[C@H]32)s1 | -2.53
8 | Cc1ccc(N2CCCc3sc(C(=O)NCCO)nc32)nn1 | -1.7
9 | COCC(=O)N1CCC(c2nc3ccc(N4CCOCC4)cn3n2)CC1 | -2.79
10 | CC(C)N(C)Cc1n[nH]c2c1CCN(C(=O)c1cc[nH]n1)C2 | 21.5
11 | CCC(CC)C(=O)NCc1cnn(CC)c1 | -13.4
12 | O=C(c1ccc(F)c(F)c1)N1CCN2CCCC2C1 (stereo not given) | 3.92
13 | Cc1cc(C(F)(F)F)nn1CCCNC(=O)C1CCC1 | -4.63
14 | CCCN1CCN(C(=O)Cn2nc(C(F)(F)F)c(Br)c2C2CC2)CC1 | -6.28
15 | CCN1CCN(C(=O)Cn2nc(C(F)(F)F)c(Br)c2C2CC2)CC1 | -7.97
16 | O=C(CCn1cc(Cl)cn1)Nc1ccc2c(c1)OCCO2 | -8.19
17 | Cc1nn(Cc2ccc(C(=O)NC3CCS(=O)(=O)C3)cc2)c(C)c1Br (stereo not given) | 3.3
18 | CC1CCCN(C(=O)c2ccn(COc3ccccc3)n2)C1 (stereo not given) | 12.9
19 | CC1CCN(C(=O)c2ccn(COc3ccccc3)n2)CC1 | -4.91
20 | Cc1ccccc1OCn1ccc(C(=O)NCCN2CCOCC2)n1 | -12.2
21 | CC1CCCCN1C(=O)c1ccn(COc2ccc(F)cc2)n1 (stereo not given) | -9.66
22 | O=C(NCCCN1CCOCC1)c1ccn(COc2ccc(Br)cc2)n1 | 12.3
23 | Cc1ccc(NC(=O)C(C)n2ccc(C(F)(F)F)n2)nc1 (stereo not given) | 1.64

Row | Structure (SMILES) | cytotoxicity at 70.5 h [%]
24 | Cc1cnc(NC(=O)C(C)n2ccc(C(F)(F)F)n2)s1 (stereo not given) | -5.09
25 | CC(Oc1ccc2c(c1)OCO2)C(=O)Nc1ccon1 (stereo not given) | -6.17
26 | COc1ccccc1N1CCN(C(=O)Cn2nc(C)c(Cl)c2C)CC1 | 11.3
27 | Cc1cc(N2CCC(Cc3ccccc3)CC2)ncn1 | -11.5
28 | CCn1cc(Cl)c(C(=O)NCCCN(C)C)n1 | -7.78
29 | CCOCCCNC(=O)C(C)n1cc(Br)cn1 (stereo not given) | 1.42
30 | CCN1CCN(C(=O)C(C)n2cc(Br)cn2)CC1 (stereo not given) | -1.55
31 | CC(C(=O)N1CCN(c2ccccc2)CC1)n1cc(Br)cn1 (stereo not given) | -2.65
32 | O=C(COc1ccc2c(c1)CCC2)NCc1ccco1 | 23.9
33 | CSc1[nH]nc(NC(=O)c2cccs2)c1C#N | -10.4
34 | CCN(Cc1nonc1C)C(=O)c1cc(C(F)(F)F)nn1C | -7.63
35 | CC(Cn1cc(Br)cn1)C(=O)Nc1ccc(Br)cn1 (stereo not given) | 3.47
36 | CC(Cn1cc(Br)cn1)C(=O)Nc1ccncc1 (stereo not given) | 6.88
37 | Cc1cc(C(F)(F)F)nn1C(C)C(=O)Nc1ccc(Cl)cn1 (stereo not given) | -6.74
38 | COc1ccc(C(C)NC(=O)c2nn(C)c(C)c2Br)cc1 (stereo not given) | -2.4
39 | CCn1cc(Br)c(C(=O)NCc2ccc(F)cc2)n1 | 4.64
40 | CCCn1nccc1C(=O)Nc1nc(C)c(C)s1 | 11.9
41 | CCc1ccccc1NC(=O)CCc1cnn(C)c1 | -11.3
42 | CCn1ccc(-c2nnc(SCC(=O)Nc3ccc(C)cc3)n2CC)n1 | -13.9
43 | Cc1cc(C)n(C2=NC(NCCC(C)C)c3c(sc4c3CCCC4)N2)n1 (stereo not given) | 1.07
44 | COCCC(=O)Nc1cnn(COc2ccc(F)cc2Cl)c1 | 27.4
45 | O=C(COc1ccc2c(c1)OCO2)NCc1ccco1 | -5.95
46 | CCCNCc1ncc(C)c(OC)c1C | -6.98

Row | Structure (SMILES) | cytotoxicity at 70.5 h [%]
47 | Cc1cc(=O)n2c3c(cc(S(=O)(=O)NC4CC4)cc13)CCC2 | 31.9
48 | CCCN(C(=O)CS(=O)(=O)c1ccccc1)c1cccc(C)c1 | -5.44
49 | Cn1cc(Br)c(C(=O)NCCn2cc(Br)cn2)n1 | 8.47
50 | COc1ccc(-c2cc(C(=O)N3N=C(C)CC3(O)C(F)(F)F)[nH]n2)cc1 (stereo not given) | 12.4
51 | COc1cccc(-c2cc(C(=O)N3N=C(C)CC3(O)C(F)(F)F)[nH]n2)c1 (stereo not given) | -16.8
52 | O=C(c1ccnn1COc1ccc(Cl)cc1)N1CCOCC1 | -6.03
53 | CCn1cc(NC(=O)C(C)n2ncc(Cl)c2C)c(C(=O)NCC(C)C)n1 (stereo not given) | -3.04
54 | Cc1c(Br)cnn1CCC(=O)N(C)Cc1c(Cl)cnn1C | 30.7
55 | CS(=O)(=O)Nc1ccn(Cc2ccc(F)cc2Cl)n1 | -12.3
56 | CCS(=O)(=O)Nc1ccn(Cc2cccc(F)c2)n1 | -11.5
57 | Cc1cc(C(F)(F)F)nn1CCCNC(=O)C1CCN(S(C)(=O)=O)CC1 | -10.7
58 | CCn1cc(S(=O)(=O)N2CCN(C(=O)c3cc(Br)cs3)CC2)c(C)n1 | 21.7
59 | CCn1ncc(-c2cc(C(F)F)nc3sc(C(N)=O)c(N)c23)c1C | 9.78
60 | Cc1c(Br)c(C(F)(F)F)nn1C(C)C(=O)O (stereo not given) | -11.2
61 | Cn1nc(C(=O)N2CCOCC2)cc1C(=O)Nc1ccc(Cl)cc1Cl | -2.86
62 | COc1cc(NC(=O)NCC2CCCO2)cc(OC)c1OC (stereo not given) | -5.38
63 | Cc1cccc(N2CCCN=C2NC(=O)c2cccc(Cl)c2)c1 | -9.98
64 | CCOc1ccc(N2CCCN=C2NC(=O)c2cccc(C)c2)cc1 | -6.22
65 | CN1CC(Oc2ccc(Cl)cc2)=NC(SCC(=O)Nc2ccccc2)=N1 | 7.43
66 | CN1CC(Oc2ccc(Cl)cc2)=NC(SCC(=O)c2ccccc2)=N1 | 14.8
67 | CC(C)c1cc2c(s1)NC(c1ccccn1)NC2=O (stereo not given) | -3.28
68 | OC1=C2C(=Nc3n[nH]c(O)c3C2c2ccco2)CCC1 (stereo not given) | -9.2
69 | CCOc1ccc(C2C3=C(O)OCC3=Nc3nc(SC)nc(N)c32)cc1 (stereo not given) | 9.83

Row | Structure (SMILES) | cytotoxicity at 70.5 h [%]
70 | Cc1nn(C)c2c(N3CCN(C(=O)C4CCCCC4)CC3)ncnc12 | 14.6
71 | Cc1nn(C)c2c(N3CCN(C(=O)C4CCCO4)CC3)ncnc12 (stereo not given) | 1.72
72 | CC(C)N1CCC(c2n[nH]cc2S(C)(=O)=O)CC1 | -10.2
73 | CNC(=O)C1(C)CN(Cc2cn(C)c3ccc(F)cc23)CCO1 (stereo not given) | -9.03
74 | Cc1ncsc1CN1CCOC(C)(C(N)=O)C1 (stereo not given) | -1.13
75 | CC(=O)N1CCC(c2ccnc(Nc3cc(C(F)(F)F)ccn3)n2)C1 (stereo not given) | 19.8
76 | O=C(NCCc1ccccc1)C1CCN(C(=O)Cn2cncn2)C1 (stereo not given) | -10.2
77 | CN(C)Cc1cc(C2CCCN(S(=O)(=O)c3cccc(Cl)c3)C2)nn1C (stereo not given) | -14.6
78 | O[C@H]1CN(Cc2c[nH]nc2-c2ccccc2)CC[C@@]12CCCO2 | 15.7
79 | Cc1cc(Nc2cnccn2)nc(C2CCCN(CCO)C2)n1 (stereo not given) | -10.3
80 | Nc1nccc(C2CCN(CC3CC3)C2)n1 (stereo not given) | 17.6
81 | Cc1cc(-c2c[nH]nc2C2CCCCN2C(=O)c2ccccc2)on1 (stereo not given) | -9.53
82 | CCc1n[nH]c(C(=O)NCCn2nccc2C)c1C | -5.81
83 | O=C1CCC[C@]2(CN(S(=O)(=O)N3CCOCC3)C[C@H]2c2cccnc2)N1 | -4.54
84 | Nc1nccc(C2CCCN(CC3CC3)C2)n1 (stereo not given) | -4.18
85 | CCn1cc(-c2nccnc2C2CCCN(C(C)=O)C2)cn1 (stereo not given) | -4.58
86 | Cc1cc(C)n(C2CCN(Cc3nc4ccccc4n3C)CC2)n1 | 1.81
87 | C[C@@H]1CN(c2nc(O)cc(Cc3ccccc3F)n2)C[C@H](C)O1 | 19.5
88 | O=C(NCc1ccccn1)c1cncc(C2CCCN2)n1 (stereo not given) | 22.2
89 | CCn1ccc(-c2cc(NCCCOc3cccc(C)c3)nc(C)n2)n1 | -6.25
90 | CCCn1cc(C(=O)N2CCCC2(C)c2nc(C)cc(N)n2)cn1 (stereo not given) | -1.03
91 | c1ccc(N2CCN(Cc3cnc(C4CCCCO4)nc3)CC2)nc1 (stereo not given) | -4.5
92 | CCc1n[nH]c(C(=O)NCCn2ccc(C)n2)c1C | 17.6

Row | Structure (SMILES) | cytotoxicity at 70.5 h [%]
93 | CNc1ncc(CN(C)C2CCN(C(C)C)CC2)cn1 | -3.89
94 | CCCC(=O)N1CCCC(c2ccccn2)C1 (stereo not given) | -1.3
95 | Cn1cc(CN2CCOC(c3nccnc3-c3cccc(F)c3)C2)cn1 (stereo not given) | 21.8
96 | Nc1nccc(C2CCCN2CCc2ccccc2)n1 (stereo not given) | -1.57
97 | CCN(CC)S(=O)(=O)N1CC[C@H](c2ccccc2)[C@@H]2[C@H]1CCCCN2C | -0.108
98 | COCC(=O)N1CCN(C)C(=O)C(Cc2ccc(-c3cccs3)cc2)C1 (stereo not given) | -1.25
99 | CC(C)C(=O)N1CCC(C)(c2cc[nH]n2)CC1 | -0.608
100 | Cc1nc2cc(C3CCCCN3C(=O)C3CC3)nn2c(O)c1C (stereo not given) | -2.34
101 | Cc1ncsc1C(=O)N1CCCCC1c1cc2nc(C)c(C)c(O)n2n1 (stereo not given) | -4.23
102 | CN(C)CCN(C)C(=O)Cn1cccc2cc(-c3ccc(F)cc3)nc1-2 | 4.32
103 | CC1Cc2ccccc2N1C(=O)Cn1nc(-c2cccs2)ccc1=O (stereo not given) | -8.13
104 | Cc1cccc(CNC(Cc2ccsc2)c2nccs2)n1 (stereo not given) | 0.0464
105 | NC(=O)C1CNCCN1C(=O)COc1ccccc1 (stereo not given) | -7.46
106 | COc1cc2cc(C)c(SCCN3CCCCC3)nc2cc1OC | 4.15
107 | CC(C)Oc1cccc(CNC(Cc2ccsc2)c2nccs2)c1 (stereo not given) | -2.9
108 | Cc1ccc(C2(CN3CCN(Cc4cnc(C)n4C)CC3)CC2)cc1 | 32.9
109 | COCCN1CCC2(COCc3cnc(N(C)C)nc32)C1 (stereo not given) | -2.9
110 | Cc1ccc(CN2CCOC3(COCCN(S(C)(=O)=O)C3)C2)o1 (stereo not given) | -5.62
111 | CCOCCCNC(=O)c1nc2c(s1)CCCN2c1ccc(C)nn1 | -7.8
112 | CN(C)C(=O)N1Cc2nnn(C)c2C(COCc2cccnc2)C1 (stereo not given) | -2.6
113 | Cc1nnc(N2C[C@H](OCc3cccnc3)[C@H]3OCCC[C@H]32)s1 | 10
114 | Cc1nnc(N2C[C@H](OCc3ccncc3)[C@H]3OCCC[C@H]32)s1 | -4.47
115 | c1coc(CN2CCOC3(COCCN(Cc4ccncc4)C3)C2)c1 (stereo not given) | -3.4
